Tests used:
Type in all cases: in vivo
Stellaria media = experiment: Pre-emergence test; conditions: 3 weeks after treatment
Experimental: (§1) To evaluate their herbicidal activity, compounds according to the invention are tested using a representative range of plants: STEME Stellaria media The pre-emergence tests involve spraying a liquid formulation of the compound onto the soil in which the seeds of the plant species mentioned above has recently been sown. The soil used in the tests is a prepared horticultural loam. The formulations used in the tests are prepared from solutions of the test compounds in acetone containing 0.4% by weight of an alkylphenol/ethylene oxide condensate available under the trade mark TRITON X-155. These acetone solutions are diluted with water and the resulting formulations applied at dosage levels corresponding to 0.025 kg, 0.100 kg or 0.400 kg of active material per hectare in a volume equivalent to 900 litres per hectare. In these tests untreated sown soil are used as controls. From 2 to 4 weeks after treatment, the tests are terminated and each pot is examined and rated according to the rating system set forth below: [table]

Glycine max = experiment: Pre-emergence test; conditions: 3 weeks after treatment
Experimental: To evaluate their herbicidal activity, compounds according to the invention are tested using a representative range of plants:
The pre-emergence tests involve spraying a liquid formulation of the compound onto the soil in which the seeds of the plant species mentioned above has recently been sown.
as §1, with “The” for “To evaluate their herbicidal activity, compounds according to the invention are tested using a representative range of plants: STEME Stellaria media The pre-emergence tests involve spraying a liquid formulation of the compound onto the soil in which the seeds of the plant species mentioned above has recently been sown. The”, “[table]” left out

Abutilon theophrasti = experiment: Post-emergence test; conditions: 2-4 weeks after treatment
Experimental: (§2) To evaluate their herbicidal activity, compounds according to the invention are tested using a representative range of plants: ABUTH Abutilon theophrasti [table] […] These acetone solutions are diluted with water and the resulting formulations applied at dosage levels equivalent of about 0.1 to 0. 4 kg per hectare of test compound per pot. After spraying the plants are placed on greenhouse benches and are cared for in the usual manner, commensurate with conventional greenhouse practices. From 2 to 4 weeks after treatment, the seedling plants are examined and rated according to the rating system provided above.

Triticum aestivum [1] = experiment: Pre-emergence test; conditions: 3 weeks after treatment
Experimental: as §1, with “TRZAW Triticum aestivum” for “STEME Stellaria media”

Triticum aestivum [2] = experiment: Post-emergence test; conditions: 2-4 weeks after treatment
Experimental: as §2, with “TRZAW Triticum aestivum” for “ABUTH Abutilon theophrasti”

Zea mays = experiment: Post-emergence test; conditions: 2-4 weeks after treatment
Experimental: as §2, with “ZEAMX Zea mays” for “ABUTH Abutilon theophrasti”

Matricaria inodora = experiment: Post-emergence test; conditions: 2-4 weeks after treatment
Experimental: as §2, with “MATIN Matricaria inodora” for “ABUTH Abutilon theophrasti”

Ipomoea hederacea = experiment: Pre-emergence test; conditions: 3 weeks after treatment
Experimental: as §1, with “IPHOE Ipomoea hederacea” for “STEME Stellaria media”

Galium aparine = experiment: Post-emergence test; conditions: 2-4 weeks after treatment
Experimental: as §2, with “GALAP Galium aparine” for “ABUTH Abutilon theophrasti”

SMILES | STEME herbicidal rating (Stellaria media; 0.100 kg/ha) | STEME herbicidal rating (Stellaria media; 0.400 kg/ha) | GLXMA herbicidal rating (Glycine max; 0.025 kg/ha) | GLXMA herbicidal rating (Glycine max; 0.100 kg/ha) | GLXMA herbicidal rating (Glycine max; 0.400 kg/ha) | ABUTH herbicidal rating (Abutilon theophrasti; 0.1 kg/ha) | ABUTH herbicidal rating (Abutilon theophrasti; 0.4 kg/ha) | TRZAW herbicidal rating (Triticum aestivum [1]; 0.025 kg/ha) | TRZAW herbicidal rating (Triticum aestivum [1]; 0.100 kg/ha) | TRZAW herbicidal rating (Triticum aestivum [1]; 0.400 kg/ha) | TRZAW herbicidal rating (Triticum aestivum [2]; 0.1 kg/ha) | TRZAW herbicidal rating (Triticum aestivum [2]; 0.4 kg/ha) | ZEAMX herbicidal rating (Zea mays; 0.1 kg/ha) | ZEAMX herbicidal rating (Zea mays; 0.4 kg/ha) | MATIN herbicidal rating (Matricaria inodora; 0.1 kg/ha) | MATIN herbicidal rating (Matricaria inodora; 0.4 kg/ha) | IPOHE herbicidal rating (Ipomoea hederacea; 0.025 kg/ha) | IPOHE herbicidal rating (Ipomoea hederacea; 0.100 kg/ha) | IPOHE herbicidal rating (Ipomoea hederacea; 0.400 kg/ha) | GALAP herbicidal rating (Galium aparine; 0.1 kg/ha) | also measured
Cc1cc(Oc2cccc(C(F)(F)F)c2)nc(-c2cc(C(F)(F)F)nn2C)c1 [Example 63] | 3 (3 - Moderate effect) | 9 (9 - Complete kill) | 0 (0 - No effect) | 0 (0 - No effect) | 0 (0 - No effect) | 4 (4 - Injury) | 4 (4 - Injury) | 0 (0 - No effect) | 0 (0 - No effect) | 0 (0 - No effect) | 3 (3 - Moderate effect) | 3 (3 - Moderate effect) | 2 (2 - Slight effect) | 3 (3 - Moderate effect) | 5 (5 - Definite injury) | 7 (7 - Good herbicidal effect) | 0 (0 - No effect) | 0 (0 - No effect) | 3 (3 - Moderate effect) | 5 (5 - Definite injury) | GALAP herbicidal rating (Galium aparine; 0.4 kg/ha): 5 (5 - Definite injury)
Cc1cnc(-c2cc(C(F)(F)F)nn2C)nc1Oc1cc(C(F)(F)F)nn1C [Example 4, 2-(1-Methyl-3-trifluoromethylpyrazol-5-yl)-6-(1-methyl-3-trifluoromethylpyrazol-5-yloxy)-5-methylpyrimidine] | 9 (9 - Complete kill) | 9 (9 - Complete kill) | 2 (2 - Slight effect) | 3 (3 - Moderate effect) | 4 (4 - Injury) | 6 (6 - Herbicidal effect) | 7 (7 - Good herbicidal effect) | 1 (1 - Trace effect) | 2 (2 - Slight effect) | 4 (4 - Injury) | 3 (3 - Moderate effect) | 5 (5 - Definite injury) | 2 (2 - Slight effect) | 4 (4 - Injury) | 5 (5 - Definite injury) | 7 (7 - Good herbicidal effect) | 4 (4 - Injury) | 6 (6 - Herbicidal effect) | 9 (9 - Complete kill) | 8 (8 - Approaching complete kill) | STEME herbicidal rating (Stellaria media; 0.025 kg/ha): 9 (9 - Complete kill); GALAP herbicidal rating (Galium aparine; 0.4 kg/ha): 9 (9 - Complete kill)
Cn1nc(C(F)(F)F)cc1Oc1cc(C#N)cc(-c2cc(C(F)(F)F)nn2C)n1 [Example 3, 4-Cyano-2-(1-methyl-3-trifluoromethylpyrazol-5-yloxy)-6-(1-methyl-3-trifluoromethylpyrazol-5-yl)pyridine] | 9 (9 - Complete kill) | 9 (9 - Complete kill) | 0 (0 - No effect) | 1 (1 - Trace effect) | 3 (3 - Moderate effect) | 4 (4 - Injury) | 5 (5 - Definite injury) | 0 (0 - No effect) | 0 (0 - No effect) | 4 (4 - Injury) | 3 (3 - Moderate effect) | 4 (4 - Injury) | 2 (2 - Slight effect) | 4 (4 - Injury) | 8 (8 - Approaching complete kill) | 8 (8 - Approaching complete kill) | 2 (2 - Slight effect) | 2 (2 - Slight effect) | 9 (9 - Complete kill) | 3 (3 - Moderate effect) | STEME herbicidal rating (Stellaria media; 0.025 kg/ha): 8 (8 - Approaching complete kill); GALAP herbicidal rating (Galium aparine; 0.4 kg/ha): 9 (9 - Complete kill)

Source: patent US6528456B2, “Herbicidal 2-pyrazolyl-6-aryloxypyri(mi)dines” (BASF Aktiengesellschaft, priority 1999, dated 2003)
